Source: article PMC7078782 (Drug Design, Development and Therapy, 2020)

How the values were obtained:
Stock solution stability = assay type: physicochemical; settings: under the experimental conditions
[1] = Stability of QC samples in beagle plasma; assay type: in vitro ADME; settings: under the experimental conditions (room temperature, autosampler, freeze-thaw, −20°C)
[2] = cats; cited from earlier work
[3] = liver; cited from earlier work
[4] = Pharmacokinetic study in beagles after intramuscular injection of parecoxib; settings: beagle, dog, plasma, im, 1.33 mg/kg, after intramuscular injection of 1.33 mg/kg parecoxib, n=6, mean ± SD

Structure (SMILES) | Stock solution stability (in words) (Stock solution stability) | Stability in beagle plasma (in words) [1] | t1/2 of conversion to valdecoxib and propionic acid [2] | Share of elimination by sulfonamide glucose hydroformylation [3] | Tmax ([4]; Tmax, beagle plasma) | half-life ([4]; t1/2, beagle plasma)
Cc1ccc(-c2cc(C(F)(F)F)nn2-c2ccc(S(N)(=O)=O)cc2)cc1 [IS, Celecoxib] | stabilized | – | – | – | – | –
CCC(=O)NS(=O)(=O)c1ccc(-c2c(-c3ccccc3)noc2C)cc1 [Parecoxib] | stabilized | stable | about 24 mins | – | – | –
Cc1onc(-c2ccccc2)c1-c1ccc(S(N)(=O)=O)cc1 [Valdecoxib] | stabilized | stable | – | about 20% | ~1.36 h | ~2.27 h
